What is called MIC is the smallest concentration in the dilution series that meets the test's criterion for growth inhibition. Broadly, the CC50 is the concentration giving 50% cytotoxicity.

Values after ≈ are worked out from the molar mass of the structure shown. Where a SMILES comes first, the peptide text is derived from it. Bridges are numbered along the chain shown (N, C = ends). [ ]: non-standard residue; d: D form. The star is where a group is joined. X1 = CC[C@H](C)CCCCC(=O)*; Dab = NCC[C@H](N)C(=O)O

The results in this text go back to ChEMBL document CHEMBL5029198, “Water-Soluble Nystatin and Derivative” (ACS Med Chem Lett, 2022).

Data set [1] can be described thus: Hemolytic activity in human RBC at 0.25 mg/ml measured after 1 hr. Format: ADME, tissue-based. The conditions noted are these: erythrocyte.
For a further data set, the system named is Aspergillus niger. Nature of the data set: Antifungal activity against Aspergillus niger ATCC 20057 assessed as reduction in fungal growth incubated overnight by broth dilution method. Type of data set: functional.
In a further data set the test system is Candida albicans. Nature of the data set: Antifungal activity against Candida albicans ATCC 10231 assessed as reduction in fungal growth incubated overnight by broth dilution method. Format: functional. A general note: Broth dilution looks for growth in wells or tubes with falling amounts of substance.
Data set [2] in a line: Cytotoxicity against human HEp-2 cells assessed as reduction in cell viability incubated for 40 to 60 mins by resazurin dye based assay. Particulars: time 40-60 min. (In general: Alamar Blue is a resazurin reagent that responds to reducing activity.)
Data set [3] can be described thus: Protein binding in human plasma assessed as free fraction at 0.1 mg/ml measured after 48 hrs by RP-HPLC analysis relative to control. Type of data set: ADME, cell-free.
The nature of data set [4]: Aqueous solubility of compound at up to 100 mg/ml. Particulars: buffer. Format: physicochemical.
Data set [5] can be described thus: Hemolytic activity in human RBC at 0.5 mg/ml measured after 1 hr relative to control. Format: ADME, tissue-based, Erythrocyte. Particulars: red blood cells, read-out: Activity.
Data set [6] in a line: Stability of compound in human plasma assessed as retention time at 0.5 mg/ml measured after 48 hrs by HPLC analysis. Type of data set: ADME, cell-free.
Data set [7] can be described thus: Protein binding in human plasma assessed as unbound fraction at 0.1 mg/ml measured after 48 hrs by RP-HPLC analysis (Rvb= 0.069 mg/ml). Format: ADME, cell-free.
Data set [8] can be described thus: Protein binding in human plasma assessed as free fraction at 0.5 mg/ml measured after 48 hrs by RP-HPLC analysis relative to control. Type of data set: ADME, cell-free.
Data set [9] in a line: Protein binding in human plasma assessed as unbound fraction at 0.25 mg/ml measured after 24 hrs by RP-HPLC analysis (Rvb= 0.147 mg/ml). Type of data set: ADME, cell-free.
Data set [10] can be described thus: Protein binding in human plasma assessed as unbound fraction at 0.25 mg/ml measured after 48 hrs by RP-HPLC analysis (Rvb= 0.147 mg/ml). Type of data set: ADME, cell-free.
A short description of data set [11]: Protein binding in human plasma assessed as free fraction at 0.25 mg/ml measured after 48 hrs by RP-HPLC analysis relative to control. Type of data set: ADME, cell-free.
Data set [12] in a line: Protein binding in human plasma at 0.25 mg/ml measured after 24 hrs by RP-HPLC analysis relative to control. Type of data set: ADME, cell-free. Particulars: read-out: PPB (converted).
Data set [13] in a line: Protein binding in human plasma assessed as unbound fraction at 0.5 mg/ml measured after 24 hrs by RP-HPLC analysis (Rvb= 0.211 mg/ml). Type of data set: ADME, cell-free.
A short description of data set [14]: Protein binding in human plasma assessed as unbound fraction at 0.5 mg/ml measured after 48 hrs by RP-HPLC analysis (Rvb= 0.211 mg/ml). Format: ADME, cell-free.
The nature of data set [15]: Stability of compound in human plasma assessed as retention time at 0.5 mg/ml measured after 6 hrs by HPLC analysis. Type of data set: ADME, cell-free.
Data set [16] can be described thus: Protein binding in human plasma assessed as unbound fraction at 0.05 mg/ml measured after 24 hrs by RP-HPLC analysis (Rvb= 0.014 mg/ml). Format: ADME, cell-free.
A short description of data set [17]: Protein binding in human plasma assessed as unbound fraction at 0.1 mg/ml measured after 24 hrs by RP-HPLC analysis (Rvb= 0.069 mg/ml). Type of data set: ADME, cell-free.
A short description of data set [18]: Protein binding in human plasma at 0.5 mg/ml measured after 24 hrs by RP-HPLC analysis relative to control. Type of data set: ADME, cell-free. Particulars: read-out: PPB (converted).

Take NYSTATIN [listing 1 of 2 here]: the Activity result in data set [1] was “Toxic”.

`CC(=O)O.COC(=O)[C@H]1[C@@H]2C[C@@H](O[C@@H]3O[C@H](C)[C@@H](O)[C@H](N)[C@@H]3O)/C=C/C=C/C=C/C=C/CC/C=C/C=C/[C@H](C)[C@@H](O)[C@@H](C)[C@H](C)OC(=O)C[C@H](O)C[C@H](O)C[C@H](O)CC[C@@H](O)[C@H](O)C[C@](O)(C[C@@H]1O)O2`: the MIC with Aspergillus niger is above 35 µg/mL; in the data set on Candida albicans it was 30 µg/mL.

As to `C[C@@H]1[C@H](O)[C@@H](C)/C=C/C=C/C=C/C=C/C=C/C=C/C=C/[C@H](O[C@@H]2O[C@H](C)[C@@H](O)[C@H](N)[C@@H]2O)C[C@@H]2O[C@](O)(C[C@@H](O)C[C@@H](O)[C@H](O)CC[C@@H](O)C[C@@H](O)CC(=O)O[C@H]1C)C[C@H](O)[C@H]2C(=O)O` [AMPHOTERICIN B], the minimum inhibitory concentration (MIC) was 31.5 µg/mL (≈ 34.1 µM) in the data set with Aspergillus niger and 5 µg/mL (≈ 5.41 µM) in the data set with Candida albicans. Besides, the 50% cytotoxic concentration (CC50) in data set [2] was 87 µg/mL (≈ 94.1 µM).

As to `CC[C@H](C)CCCCC(=O)N[C@@H](CCN)C(=O)N[C@H](C(=O)N[C@@H](CCN)C(=O)N[C@H]1CCNC(=O)[C@H]([C@@H](C)O)NC(=O)[C@H](CCN)NC(=O)[C@H](CCN)NC(=O)[C@H](CC(C)C)NC(=O)[C@@H](Cc2ccccc2)NC(=O)[C@H](CCN)NC1=O)[C@@H](C)O` (X1-[Dab]T[Dab][Dab][Dab][dF]L[Dab][Dab]T; lactam 4-C), the minimal inhibitory concentration (MIC) in the data set on Aspergillus niger and with Candida albicans was above 35 µg/mL each time.

For `CC(=O)O.C[C@@H]1[C@H](O)[C@@H](C)/C=C/C=C/CC/C=C/C=C/C=C/C=C/[C@H](O[C@@H]2O[C@H](C)[C@@H](O)[C@H](N)[C@@H]2O)C[C@@H]2O[C@](O)(C[C@@H](O)[C@H](O)CC[C@@H](O)C[C@@H](O)C[C@@H](O)CC(=O)O[C@H]1C)C[C@H](O)[C@H]2C(=O)NCCO`, the fraction unbound at 48 h, 0.1 mg/ml in [3] was 0.3. Moreover, the minimal inhibitory concentration (MIC) was 23.6 µg/mL in the data set with Aspergillus niger and 5 µg/mL with Candida albicans. Moreover, in [4], the solubility entry is recorded as “Soluble”. The Activity result in data set [1] is “Non-Toxic”. Moreover, in data set [5], the hemolysis at 1 h, 0.5 mg/ml came out at 62%. Moreover, the Retention_time in [6] came to 6.5 min; in [15] it was 9.4 min. For the same molecule, the “Cp(f)” value is 30 µg/mL in data set [7]; 120 µg/mL in data set [9]; 100 µg/mL in data set [10]; 168 µg/mL in data set [13]; 137 µg/mL in data set [14]; 13 µg/mL in [16]. Besides, in [17], the “Cp(f)” value was 42 µg/mL. The fraction unbound at 48 h, 0.5 mg/ml in [8] turned out to be 0.274. For the same molecule, in data set [11], the fraction unbound at 48 h, 0.25 mg/ml was found to be 0.4. The fraction unbound at 24 h, 0.25 mg/ml in [12] is 0.48. Besides, the CC50 in [2] stood at 149 µg/mL. Further, the fraction unbound at 24 h, 0.5 mg/ml in data set [18] was 0.34.

Consider `Clc1ccc(COC(Cn2ccnc2)c2ccc(Cl)cc2Cl)cc1` (configuration not stated) [ECONAZOLE], for which the minimal inhibitory concentration (MIC) with Aspergillus niger and with Candida albicans was above 35 µg/mL throughout.

Turning to NYSTATIN [listing 2 of 2 here], the values for the MIC in the data set on Aspergillus niger and in the data set on Candida albicans were 22.5 µg/mL and 10 µg/mL, respectively.
